According to patent US20140079717A1, “Compositions and Methods to Prevent Cell Transformation and Cancer Metastasis” (CORNELL UNIVERSITY, priority 2011, published 2014):

Assay: In vitro liposome fractionation assay
Type: binding
Details: 5 μg protein, 15 minute incubation, centrifugation, SDS-PAGE
Procedure: FIG. 51. Recombinant tTG can associate with lipid vesicles lacking any protein content. Synthetic liposomes were prepared by extrusion and then equal amounts of this preparation were combined with either 5 μg recombinant tTG (tTG WT) or 5 μg bovine serum albumin (BSA). After a 15 minute incubation, the liposomes were pelleted by centrifugation, and the resulting supernatant (Sup) and liposome (Pellet) fractions were resolved by SDS-PAGE. The gel was then stained with Quick Blue to detect the proteins. A lane containing recombinant tTG (Rec. tTG WT) was included as a standard.
To obtain the results depicted in FIG. 51, the following procedures were used. In vitro liposome fractionation assays—Synthetic liposomes were prepared from a lipid mixture containing 35% phosphatidylethanolamine, 25% phosphatidylserine, 5% phosphatidylinositol, and 35% cholesterol re-suspended in TBSM buffer (20 mM Tris, pH 7.5, 150 mM NaCl, and 2 mM MgCl2). The lipids were extruded through an 8 micron filter, pelleted by centrifugation at 13,000 rpm for 15 minutes, and re-suspended in TBSM buffer. Equal amounts of the lipid preparation were then incubated with either recombinant wild-type tTG or BSA for 15 minutes, followed by centrifugation at 13,000 rpm for 10 minutes at room temperature. […]

Substance: bovine serum albumin [BSA]
- protein pelleted with synthetic liposomes: only weakly pelleted
